Legend:
[1] = target: T1, Recombinant Human 5′-Nucleotidase (CD73) (Homo sapiens, UniProt P21589); assay: CD73 Enzyme Assay; format: biochemical; settings: human CD73 0.5 nM, AMP 30 μM, PiColorLock phosphate detection; read-out: Potency (IC50, CD73 enzyme assay)
T1 construct: CHO derived CD73 (Trp27-Lys547), with a C-terminal 6-His tag; 6-His (C); purchased R&D 5795-EN; host or cells: CHO
T1 sequence (P21589 27-547): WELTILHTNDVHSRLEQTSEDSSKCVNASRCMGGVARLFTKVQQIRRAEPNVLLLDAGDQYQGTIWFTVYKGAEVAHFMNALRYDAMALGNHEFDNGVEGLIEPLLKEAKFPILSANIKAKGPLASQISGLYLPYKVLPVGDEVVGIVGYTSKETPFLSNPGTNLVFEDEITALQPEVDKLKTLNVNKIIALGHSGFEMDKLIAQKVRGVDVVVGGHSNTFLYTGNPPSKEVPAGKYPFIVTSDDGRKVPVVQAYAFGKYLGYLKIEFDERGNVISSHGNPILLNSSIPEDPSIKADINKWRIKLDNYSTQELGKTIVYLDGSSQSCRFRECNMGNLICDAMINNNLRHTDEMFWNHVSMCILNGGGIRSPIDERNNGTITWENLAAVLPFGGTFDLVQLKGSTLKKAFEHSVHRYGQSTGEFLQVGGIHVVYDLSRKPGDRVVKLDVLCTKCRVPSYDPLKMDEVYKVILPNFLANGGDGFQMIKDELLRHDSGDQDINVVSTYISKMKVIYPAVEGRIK
Procedure, shortened: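 Human CD73 (CHO-derived Trp27-Lys547, His-tagged; 0.5 nM final) was preincubated with compound for 15 min at 25° C. in Tris pH 7.5 buffer with MgCl2. It then reacted with 30 μM AMP for 20 min at 37° C., and released phosphate was read by malachite green absorbance at 635 nm. IC50 came from four-parameter fits against enzyme and no-enzyme controls.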

[2] = target: T2, Cell surface CD73 of U87 MG human glioblastoma cells (Homo sapiens, UniProt P21589); assay: CD73 Cellular Assay; format: cell-based; settings: 5000 cells per well, 30 μM AMP substrate, read-out: Potency (IC50, CD73 cellular assay)
T2 construct: Cell surface CD73 catalyzes the conversion of adenosine monophosphate (AMP) to adenosine and inorganic phosphate; endogenous in cells; host or cells: U87 MG human glioblastoma cells
T2 sequence (P21589 27-549): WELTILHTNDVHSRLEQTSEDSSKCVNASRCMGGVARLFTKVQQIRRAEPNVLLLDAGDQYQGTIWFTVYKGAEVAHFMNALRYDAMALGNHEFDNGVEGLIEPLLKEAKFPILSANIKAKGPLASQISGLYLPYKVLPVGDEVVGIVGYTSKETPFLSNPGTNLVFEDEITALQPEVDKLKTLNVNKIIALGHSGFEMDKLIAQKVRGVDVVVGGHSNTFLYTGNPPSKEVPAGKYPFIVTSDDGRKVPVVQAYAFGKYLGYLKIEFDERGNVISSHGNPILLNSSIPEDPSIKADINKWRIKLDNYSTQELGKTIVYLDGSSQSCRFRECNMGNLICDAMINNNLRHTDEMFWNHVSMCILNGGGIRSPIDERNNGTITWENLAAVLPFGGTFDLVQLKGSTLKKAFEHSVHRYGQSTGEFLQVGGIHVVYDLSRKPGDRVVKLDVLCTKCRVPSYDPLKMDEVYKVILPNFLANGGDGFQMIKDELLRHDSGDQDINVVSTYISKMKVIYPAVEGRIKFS
Procedure, shortened: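 U87 MG cells (5000/well) preincubated with compound 30 min at 37 °C, 5% CO2, in HEPES-buffered saline pH 7.4 with 0.5% DMSO, then 30 μM AMP (final) for 50 min. Released phosphate in supernatant read colorimetrically at 635 nm; IC50 from four-parameter logistic fit versus cells-plus-substrate and cells-only controls.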

SMILES	IC50 [1] [nM]	IC50 [2] [nM]
C[C@H](Nc1nc(Cl)nn2c([C@@H]3O[C@H](COP(=O)(O)CP(=O)(O)O)[C@@H](O)[C@H]3O)cnc12)c1cncc(F)c1 [Compound 33, (((((2R,3S,4R,5S)-5-(2-chloro-4-(((S)-1-(5-fluoropyridin-3-yl)ethyl)amino)imidazo[2,1-f][1,2,4]triazin-7-yl)-3,4-dihydroxytetrahydrofuran-2-yl)methoxyxhydroxy)phosphoryl)methyl)phosphonic acid]	< 10	1 to 9.9
C[C@@H](Nc1nc(Cl)nn2c([C@@H]3O[C@H](COP(=O)(O)CP(=O)(O)O)[C@@H](O)[C@H]3O)cnc12)c1ccccc1 [Compound 34, [({[(2R,3S,4R,5S)-5-(2-chloro-4-{[(1R)-1-phenylethyl]amino}imidazo[2,1-f][1,2,4]triazin-7-yl)-3,4-dihydroxyoxolan-2-yl]methoxy}(hydroxy)phosphoryl)methyl]phosphonic Acid]	< 10	1 to 9.9
C[C@H](Nc1nc(Cl)nn2c([C@@H]3O[C@H](COP(=O)(O)CP(=O)(O)O)[C@@H](O)[C@H]3O)cnc12)c1ccccc1 [Compound 35, (((((2R,3S,4R,1S)-5-(2-chloro-4-(((S)-1-phenylethyl)amino)imidazo[2,1-f][1,2,4]triazin-7-yl)-3,4-dihydroxytetrahydrofuran-2-yl)methoxy)(hydroxy)phosphoryl)methyl)phosphonic Acid]	< 10	< 1
C[C@H](Nc1nc(Cl)nn2c([C@@H]3O[C@H](COP(=O)(O)CP(=O)(O)O)[C@@H](O)[C@H]3O)cnc12)c1cccc(F)c1 [Compound 36, (((((2R,3S,4R,5S)-5-(2-chloro-4-(((S)-1-(3-fluorophenyl)ethyl)amino)imidazo[2,1-f][1,2,4]triazin-7-yl)-3,4-dihydroxytetrahydrofuran-2-yl)methoxy)(hydroxy)phosphoryl)methyl) phosphonic acid]	< 10	< 1
C[C@H](Nc1nc(Cl)nn2c([C@@H]3O[C@H](COP(=O)(O)CP(=O)(O)O)[C@@H](O)[C@H]3O)cnc12)c1ccc(F)cc1 [Compound 37, (((((2R,3S,4R,1S)-5-(2-chloro-4-(((S)-1-(4-fluorophenyl)ethyl)amino)imidazo[2,1-f][1,2,4]triazin-7-yl)-3,4-dihydroxytetrahydrofuran-2-yl)methoxy)(hydroxy)phosphoryl)methyl)phosphonic Acid]	< 10	< 1
CC(C)[C@@H]1CCCN1c1nc(Cl)nn2c([C@@H]3O[C@H](COP(=O)(O)CP(=O)(O)O)[C@@H](O)[C@H]3O)cnc12 [Compound 39, (((((2R,3S,4R,1S)-5-(2-chloro-4-((S)-2-isopropylpyrrolidin-1-yl)imidazo[2,1-f][1,2,4]triazin-7-yl)-3,4-dihydroxytetrahydrofuran-2-yl)methoxy)(hydroxy)phosphoryl)methyl)phosphonic acid]	< 10	< 1
O=P(O)(O)CP(=O)(O)OC[C@H]1O[C@@H](c2cnc3c(N4CCCC45CCCC5)nc(Cl)nn23)[C@H](O)[C@@H]1O [Compound 40, (((((2R,3S,4R,1S)-5-(2-chloro-4-(1-azaspiro[4.4]nonan-1-yl)imidazo[2,1-f][1,2,4]triazin-7-yl)-3,4-dihydroxytetrahydrofuran-2-yl)methoxy)(hydroxy)phosphoryl)methyl)phosphonic Acid]	< 10	1 to 9.9

The next lines start with the values.

IC50 [1] [nM]	IC50 [2] [nM]	SMILES
< 10	< 1	O=P(O)(O)CP(=O)(O)OC[C@H]1O[C@@H](c2cnc3c(N4CCCC45CCC5)nc(Cl)nn23)[C@H](O)[C@@H]1O [Compound 41, [({[(2R,3S,4R,5S)-5-(4-{5-azaspiro[3.4]octan-5-yl}-2-chloroimidazo[2,1-f][1,2,4]triazin-7-yl)-3,4-dihydroxyoxolan-2-yl]methoxy}(hydroxy)phosphoryl)methyl]phosphonic Acid]
< 10	< 1	O=P(O)(O)CP(=O)(O)OC[C@H]1O[C@@H](c2cnc3c(N4CCOCC4)nc(Cl)nn23)[C@H](O)[C@@H]1O [Compound 42, (((((2R,3S,4R,5S)-5-(2-chloro-4-morpholinoimidazo[2,1-f][1,2,4]triazin-7-yl)-3,4-dihydroxytetrahydrofuran-2-yl)methoxyxhydroxy)phosphoryl)methyl)phosphonic acid]
< 10	< 1	O=P(O)(O)CP(=O)(O)OC[C@H]1O[C@@H](c2cnc3c(N4CCCCC4)nc(Cl)nn23)[C@H](O)[C@@H]1O [Compound 43, (((((2R,3S,4R,1S)-5-(2-chloro-4-(piperidin-1-yl)imidazo[2,1-f][1,2,4]triazin-7-yl)-3,4-dihydroxytetrahydrofuran-2-yl)methoxy)(hydroxy)phosphoryl)methyl)phosphonic Acid]
< 10	< 1	O=P(O)(O)CP(=O)(O)OC[C@H]1O[C@@H](c2cnc3c(N4CCC(F)(F)CC4)nc(Cl)nn23)[C@H](O)[C@@H]1O [Compound 44, (((((2R,3S,4R,1S)-5-(2-chloro-4-(4,4-difluoropiperidin-1-yl)imidazo[2,1-f][1,2,4]triazin-7-yl)-3,4-dihydroxytetrahydrofuran-2-yl)methoxy)(hydroxy)phosphoryl)methyl)phosphonic Acid]
< 10	< 1	O=P(O)(O)CP(=O)(O)OC[C@H]1O[C@@H](c2cnc3c(N4CC5CC5C4)nc(Cl)nn23)[C@H](O)[C@@H]1O (stereo partly drawn) [Compound 45, [({[(2R,3S,4R,5S)-5-(4-{3-azabicyclo[3.1.0]hexan-3-yl}-2-chloroimidazo[2,1-f][1,2,4]triazin-7-yl)-3,4-dihydroxyoxolan-2-yl]methoxy}(hydroxy)phosphoryl)methyl]phosphonic Acid]
< 10	< 1	O=P(O)(O)CP(=O)(O)OC[C@H]1O[C@@H](c2cnc3c(N4CCC(F)(F)C4)nc(Cl)nn23)[C@H](O)[C@@H]1O [Compound 46, [({[(2R,3S,4R,5S)-5-[2-chloro-4-(3,3-difluoropyrrolidin-1-yl)imidazo[2,1-f][1,2,4]triazin-7-yl]-3,4-dihydroxyoxolan-2-yl]methoxy}(hydroxy)phosphoryl)methyl]phosphonic Acid]
< 10	1 to 9.9	O=P(O)(O)CP(=O)(O)OC[C@H]1O[C@@H](c2cnc3c(NC4CCOCC4)nc(Cl)nn23)[C@H](O)[C@@H]1O [Compound 47, (((((2R,3S,4R,1S)-5-(2-chloro-4-((tetrahydro-2H-pyran-4-yl)amino)imidazo[2,1-f][1,2,4]triazin-7-yl)-3,4-dihydroxytetrahydrofuran-2-yl)methoxy)(hydroxy)phosphoryl)methyl)phosphonic Acid]
< 10	1 to 9.9	O=P(O)(O)CP(=O)(O)OC[C@H]1O[C@@H](c2cnc3c(NC4CCC(F)(F)CC4)nc(Cl)nn23)[C@H](O)[C@@H]1O [Compound 48, [({[(2R,3S,4R,5S)-5-{2-chloro-4-[(4,4-difluorocyclohexyl)amino]imidazo[2,1-f][1,2,4]triazin-7-yl}-3,4-dihydroxyoxolan-2-yl]methoxy}(hydroxy)phosphoryl)methyl]phosphonic Acid]
< 10	< 1	O=P(O)(O)CP(=O)(O)OC[C@H]1O[C@@H](c2cnc3c(NC4CCC(F)(F)C4)nc(Cl)nn23)[C@H](O)[C@@H]1O (stereo partly drawn) [Compound 49, (((((2R,3S,4R,1S)-5-(2-chloro-4-((3,3-difluorocyclopentyl)amino)imidazo[2,1-f][1,2,4]triazin-7-yl)-3,4-dihydroxytetrahydrofuran-2-yl)methoxy)(hydroxy)phosphoryl)methyl)phosphonic Acid]
